Columns and labels:
Experiment in all cases: Test C pre/postemergence
Assay type in all cases: in vivo
[1] = tested on: common ragweed (Ambrosia elatior); details: for Ragweed plant response rating: scale 0 to 100 (0 no effect, 100 complete control)
Method in brief: (§1)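 Pre: seeds planted, sprayed same day. Post: 1- to 4-leaf plants (2–18 cm). Formulation: non-phytotoxic solvent + surfactant. Greenhouse 12–14 d; visual % control vs untreated, 0–100.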

[2] = tested on: lambsquarters (Chenopodium album); details: for Lambsquarters plant response rating: scale 0 to 100 (0 no effect, 100 complete control)
Method in brief: as §1

[3] = tested on: cocklebur (Xanthium strumarium); details: for Cocklebur plant response rating: scale 0 to 100 (0 no effect, 100 complete control)
Method in brief: as §1

[4] = tested on: pigweed (Amaranthus retroflexus); details: for Pigweed plant response rating: scale 0 to 100 (0 no effect, 100 complete control)
Method in brief: as §1

[5] = tested on: goosegrass (Eleusine indica); details: for Goosegrass plant response rating: scale 0 to 100 (0 no effect, 100 complete control)
Method in brief: as §1

[6] = tested on: Surinam grass (Brachiaria decumbens); details: for Surinam Grass plant response rating: scale 0 to 100 (0 no effect, 100 complete control)
Method in brief: as §1

[7] = tested on: corn (Zea mays); details: for Corn plant response rating: scale 0 to 100 (0 no effect, 100 complete control)
Method in brief: as §1

[8] = tested on: crabgrass (Digitaria sanguinalis); details: for Crabgrass plant response rating: scale 0 to 100 (0 no effect, 100 complete control)
Method in brief: as §1

[9] = tested on: common (oilseed) sunflower (Helianthus annuus); details: Preemergence
Method in brief: as §1

[10] = tested on: yellow nutsedge (Cyperus esculentus); details: for Nutsedge, Yellow plant response rating: scale 0 to 100 (0 no effect, 100 complete control)
Method in brief: as §1

[11] = tested on: velvetleaf (Abutilon theophrasti); details: for Velvetleaf plant response rating: scale 0 to 100 (0 no effect, 100 complete control)
Method in brief: as §1

[12] = tested on: kochia (Kochia scoparia); details: for Kochia plant response rating: scale 0 to 100 (0 no effect, 100 complete control)
Method in brief: as §1

[13] = Preemergence, 16 g ai/ha, scale 0 to 100, 0 no effect, 100 complete control
[14] = Preemergence, 31 g ai/ha, scale 0 to 100, 0 no effect, 100 complete control
[15] = Preemergence, 62 g ai/ha, scale 0 to 100, 0 no effect, 100 complete control
[16] = Preemergence, 125 g ai/ha, scale 0 to 100
[17] = 31 g ai/ha, scale 0 to 100, 0 no effect, 100 complete control
[18] = 62 g ai/ha, scale 0 to 100, 0 no effect, 100 complete control
[19] = Postemergence, 250 g ai/ha, scale 0 to 100
[20] = Preemergence, 250 g ai/ha, scale 0 to 100

SMILES: CCCOC(=O)c1nc(C2CC2)nc(N)c1Cl [Compound 75]
- Plant response rating, Ragweed [1, 13]: 20
- Plant response rating, Ragweed [1, 14]: 70
- Plant response rating, Ragweed [1, 15]: 80
- Plant response rating, Ragweed ([1]; Preemergence, scale 0 to 100, 0 no effect, 100 complete control): 90
- Plant response rating, Lambsquarters [2, 13]: 70
- Plant response rating, Lambsquarters [2, 14]: 75
- Plant response rating, Lambsquarters [2, 15]: 80
- Plant response rating, Lambsquarters [2, 16]: 100
- Plant response rating, Cocklebur [3, 13]: 55
- Plant response rating, Cocklebur [3, 14]: 90
- Plant response rating, Cocklebur [3, 15]: 95
- Plant response rating, Cocklebur [3, 16]: 100
- Plant response rating, Pigweed [4, 13]: 70
- Plant response rating, Pigweed [4, 14]: 75
- Plant response rating, Pigweed [4, 15]: 80
- Plant response rating, Goosegrass [5, 13]: 0
- Plant response rating, Goosegrass [5, 14]: 0
- Plant response rating, Goosegrass [5, 15]: 0
- Plant response rating, Goosegrass [5, 16]: 30
- Plant response rating, Surinam Grass [6, 13]: 0
- Plant response rating, Surinam Grass [6, 14]: 0
- Plant response rating, Surinam Grass [6, 15]: 55
- Plant response rating, Corn [7, 14]: 0
- Plant response rating, Corn [7, 15]: 30
- Plant response rating, Corn [7, 16]: 65
- Plant response rating, Crabgrass [8, 13]: 0
- Plant response rating, Crabgrass [8, 14]: 10
- Plant response rating, Crabgrass [8, 15]: 20
- Plant response rating, Crabgrass [8, 16]: 60
- Plant response rating, Sunflower ([9]; 16 g ai/ha, scale 0 to 100, 0 no effect, 100 complete control): 50
- Plant response rating, Sunflower [9, 17]: 70
- Plant response rating, Sunflower [9, 18]: 100
- Plant response rating, Nutsedge, Yellow [10, 13]: 0
- Plant response rating, Nutsedge, Yellow [10, 14]: 0
- Plant response rating, Nutsedge, Yellow [10, 15]: 0
- Plant response rating, Velvetleaf [11, 13]: 5
- Plant response rating, Velvetleaf [11, 14]: 60
- Plant response rating, Velvetleaf [11, 15]: 85
- Plant response rating, Kochia [12, 13]: 70
- Plant response rating, Kochia [12, 14]: 80
- Plant response rating, Kochia [12, 15]: 100
- Plant response rating, Kochia [12, 16]: 100

SMILES: CC(C)COC(=O)c1nc(C2CC2)nc(N)c1Br [Compound 17]
- Plant response rating (scale of 0 to 100), Ragweed ([1]; Postemergence, 31 g ai/ha): 65
- Ragweed plant response rating ([1]; Postemergence, 62 g ai/ha): 85
- Ragweed plant response rating ([1]; Postemergence, 125 g ai/ha): 95
- Plant response rating, Ragweed [1, 19]: 95
- Plant response rating, Ragweed [1, 14]: 70
- Plant response rating, Ragweed [1, 15]: 80
- Plant response rating, Ragweed [1, 16]: 95
- Plant response rating, Ragweed [1, 20]: 100
- Plant response rating (scale of 0 to 100), Lambsquarters ([2]; Postemergence, 31 g ai/ha): 95
- Lambsquarters plant response rating ([2]; Postemergence, 62 g ai/ha): 100
- Lambsquarters plant response rating ([2]; Postemergence, 125 g ai/ha): 100
- Plant response rating, Lambsquarters [2, 19]: 100
- Plant response rating, Lambsquarters [2, 14]: 95
- Plant response rating, Lambsquarters [2, 15]: 95
- Plant response rating, Lambsquarters [2, 16]: 100
- Plant response rating, Lambsquarters [2, 20]: 100
- Plant response rating (scale of 0 to 100), Cocklebur ([3]; Postemergence, 31 g ai/ha): 95
- Cocklebur plant response rating ([3]; Postemergence, 62 g ai/ha): 100
- Cocklebur plant response rating ([3]; Postemergence, 125 g ai/ha): 100
- Plant response rating, Cocklebur [3, 19]: 100
- Plant response rating, Cocklebur [3, 14]: 75
- Plant response rating, Cocklebur [3, 15]: 90
- Plant response rating, Cocklebur [3, 16]: 95
- Plant response rating, Cocklebur [3, 20]: 100
- Plant response rating (scale of 0 to 100), Pigweed ([4]; Postemergence, 31 g ai/ha): 45
- Pigweed plant response rating ([4]; Postemergence, 62 g ai/ha): 65
- Pigweed plant response rating ([4]; Postemergence, 125 g ai/ha): 75
- Plant response rating, Pigweed [4, 19]: 95
- Plant response rating, Pigweed [4, 14]: 95
- Plant response rating, Pigweed [4, 15]: 100
- Plant response rating, Pigweed [4, 16]: 100
- Plant response rating, Pigweed [4, 20]: 100
- Plant response rating (scale of 0 to 100), Goosegrass ([5]; Postemergence, 31 g ai/ha): 0
- Goosegrass plant response rating ([5]; Postemergence, 62 g ai/ha): 0
- Goosegrass plant response rating ([5]; Postemergence, 125 g ai/ha): 0
- Plant response rating, Goosegrass [5, 19]: 0
- Plant response rating, Goosegrass [5, 14]: 0
- Plant response rating, Goosegrass [5, 15]: 0
- Plant response rating, Goosegrass [5, 16]: 0
- Plant response rating, Goosegrass [5, 20]: 0
- Plant response rating (scale of 0 to 100), Surinam Grass ([6]; Postemergence, 31 g ai/ha): 0
- Surinam Grass plant response rating ([6]; Postemergence, 62 g ai/ha): 0
- Surinam Grass plant response rating ([6]; Postemergence, 125 g ai/ha): 0
- Plant response rating, Surinam Grass [6, 19]: 0
- Plant response rating, Surinam Grass [6, 14]: 0
- Plant response rating, Surinam Grass [6, 15]: 0
- Plant response rating, Surinam Grass [6, 16]: 0
- Plant response rating, Surinam Grass [6, 20]: 0
- Plant response rating (scale of 0 to 100), Corn ([7]; Postemergence, 31 g ai/ha): 0
- Corn plant response rating ([7]; Postemergence, 62 g ai/ha): 0
- Corn plant response rating ([7]; Postemergence, 125 g ai/ha): 0
- Plant response rating, Corn [7, 19]: 20
- Plant response rating, Corn [7, 14]: 0
- Plant response rating, Corn [7, 15]: 20
- Plant response rating, Corn [7, 16]: 35
- Plant response rating, Corn [7, 20]: 75
- Plant response rating (scale of 0 to 100), Crabgrass ([8]; Postemergence, 31 g ai/ha): 0
- Crabgrass plant response rating ([8]; Postemergence, 62 g ai/ha): 0
- Crabgrass plant response rating ([8]; Postemergence, 125 g ai/ha): 20
- Plant response rating, Crabgrass [8, 19]: 65
- Plant response rating, Crabgrass [8, 14]: 0
- Plant response rating, Crabgrass [8, 15]: 0
- Plant response rating, Crabgrass [8, 16]: 20
- Plant response rating, Crabgrass [8, 20]: 80
- Plant response rating, Sunflower [9, 17]: 60
- Plant response rating, Sunflower [9, 18]: 95
- Plant response rating, Sunflower ([9]; 125 g ai/ha, scale 0 to 100): 100
- Plant response rating, Sunflower ([9]; 250 g ai/ha, scale 0 to 100): 100
- Plant response rating (scale of 0 to 100), Nutsedge, Yellow ([10]; Postemergence, 31 g ai/ha): 0
- Nutsedge, Yellow plant response rating ([10]; Postemergence, 62 g ai/ha): 0
- Nutsedge, Yellow plant response rating ([10]; Postemergence, 125 g ai/ha): 0
- Plant response rating, Nutsedge, Yellow [10, 19]: 0
- Plant response rating, Nutsedge, Yellow [10, 14]: 0
- Plant response rating, Nutsedge, Yellow [10, 15]: 0
- Plant response rating, Nutsedge, Yellow [10, 16]: 0
- Plant response rating, Nutsedge, Yellow [10, 20]: 0
- Plant response rating (scale of 0 to 100), Velvetleaf ([11]; Postemergence, 31 g ai/ha): 25
- Velvetleaf plant response rating ([11]; Postemergence, 62 g ai/ha): 50
- Velvetleaf plant response rating ([11]; Postemergence, 125 g ai/ha): 80
- Plant response rating, Velvetleaf [11, 19]: 95
- Plant response rating, Velvetleaf [11, 14]: 20
- Plant response rating, Velvetleaf [11, 15]: 80
- Plant response rating, Velvetleaf [11, 16]: 100
- Plant response rating, Velvetleaf [11, 20]: 100
- Plant response rating (scale of 0 to 100), Kochia ([12]; Postemergence, 31 g ai/ha): 100
- Kochia plant response rating ([12]; Postemergence, 62 g ai/ha): 100
- Kochia plant response rating ([12]; Postemergence, 125 g ai/ha): 100
- Plant response rating, Kochia [12, 19]: 100
- Plant response rating, Kochia [12, 14]: 0
- Plant response rating, Kochia [12, 15]: 0
- Plant response rating, Kochia [12, 16]: 25
- Plant response rating, Kochia [12, 20]: 85
